Measured values: the supplement of paper PMC10331698
± gives the standard deviation of the averaged measurements.

Columns and labels:
Test in all cases: level (log10 ratio to DMSO vehicle control); higher = higher biomarker level / cell amount than vehicle control
[1] = compound: FC(F)(F)C(F)(F)C(F)(F)C(F)(F)CCI [1H,1H,2H,2H-Perfluorohexyl iodide]; conditions: in DMSO
Procedure: (§1)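 BioMAP Diversity Plus panel of 12 human primary cell co-culture systems (3C, 4H, LPS, SAg, BT, BF4T, BE3C, CASM3C, HDF3CGF, KF3CT, MyoF, Mphg). Compounds were added 1 h before stimulation and left for 24 h (MyoF 48 h; BT 72 h for soluble read-outs or 6 d for IgG). Biomarkers were read by ELISA, cytotoxicity by SRB, PBMC viability and proliferation by Alamar Blue. Each well value was divided by the mean of 8 DMSO control wells on the same plate and log10 transformed; duplicate blinded samples were tested at 4 concentrations.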

[2] = compound: OCC(F)(F)C(F)(F)C(F)(F)C(F)(F)C(F)(F)C(F)(F)C(F)(F)C(F)(F)CO [1H,1H,10H,10H-Perfluorodecane-1,10-diol]; conditions: in DMSO
Procedure: as §1

[3] = compound: C=CC(=O)OCC(F)(F)C(F)(F)C(F)(F)C(F)(F)C(F)(F)C(F)(F)C(F)(F)C(F)F [1H,1H,9H-Perfluorononyl acrylate]; conditions: in DMSO
Procedure: as §1

[4] = compound: Cc1ccc(S(=O)(=O)OCC(F)(F)C(F)(F)C(F)(F)C(F)(F)C(F)(F)C(F)F)cc1 [1H,1H,7H-Perfluoroheptyl 4-methylbenzenesulfonate]; conditions: in DMSO
Procedure: as §1

[5] = compound: O=C(CC(=O)C(F)(F)C(F)(F)C(F)(F)F)c1cccs1 [(Perfluorobutyryl)-2-thenoylmethane]; conditions: in DMSO
Procedure: as §1

[6] = compound: OCCC(F)(F)C(F)(F)C(F)(F)C(F)(F)C(F)(F)C(F)(F)C(F)(F)C(F)(F)F [8:2 Fluorotelomer alcohol]; conditions: 6700 nM; in DMSO
Procedure: as §1

[7] = compound: O=P(O)(O)CCC(F)(F)C(F)(F)C(F)(F)C(F)(F)C(F)(F)C(F)(F)F [2-(Perfluorohexyl)ethylphosphonic acid]; conditions: in DMSO
Procedure: as §1

Test System	level (log10) ([1]; 6700 nM)	level (log10) ([1]; 20000 nM)	level (log10) ([1]; 60000 nM)	level (log10) ([2]; 6700 nM)	level (log10) ([2]; 20000 nM)	level (log10) ([2]; 60000 nM)	level (log10) ([3]; 6700 nM)	level (log10) ([3]; 20000 nM)	level (log10) ([3]; 60000 nM)	level (log10) ([4]; 6700 nM)	level (log10) ([4]; 20000 nM)	level (log10) ([4]; 60000 nM)	level (log10) ([5]; 6700 nM)	level (log10) ([5]; 20000 nM)	level (log10) [6]	level (log10) ([7]; 6700 nM)	level (log10) ([7]; 20000 nM)	level (log10) ([7]; 60000 nM)
HDF3CGF:CXCL8/IL-8	0.003 ± 0.0057	-0.0025 ± 0.0035	0.0015 ± 0.011	0.004 ± 0.013	-0.0055 ± 0.021	-0.081	-0.009 ± 0.0042	0.0075 ± 0.021	0.0085 ± 0.0035	-0.0045 ± 0.011	0.0065 ± 0.0035	0.0095 ± 0.0021	0.01 ± 0.0014	0.015 ± 0.0071	0.005 ± 0.0099	-0.005 ± 0.0042	-0.0125 ± 0.00071	0.012 ± 0.0071
HDF3CGF:CXCL9/MIG	0.0105 ± 0.028	0.007 ± 0.0085	-0.096 ± 0.016	0.012 ± 0.013	-0.037 ± 0.014	-0.789	-0.0315 ± 0.025	-0.083 ± 0.025	-0.215 ± 0.071	-0.002 ± 0.0099	0.061 ± 0.025	0.048 ± 0.037	-0.0495 ± 0.012	-0.0855 ± 0.0064	0.004 ± 0.0028	-0.003 ± 0.0099	0.008 ± 0.017	-0.006 ± 0.0057
HDF3CGF:CXCL10/IP-10	0.0045 ± 0.035	-0.0155 ± 0.0064	-0.069 ± 0.02	-0.0045 ± 0.028	-0.0355 ± 0.0035	-0.578	-0.0105 ± 0.0064	-0.041 ± 0.048	-0.15 ± 0.096	-0.008 ± 0.025	0.0085 ± 0.013	0.006 ± 0.055	-0.01	-0.141 ± 0.012	-0.039 ± 0.0085	0.014 ± 0.0028	0.0505 ± 0.0078	0.0525 ± 0.037
HDF3CGF:CXCL11/I-TAC	0.006 ± 0.011	-0.0165 ± 0.012	-0.0835 ± 0.00071	0.013 ± 0.0042	-0.031 ± 0.025	-0.497	-0.014 ± 0.0014	-0.066 ± 0.033	-0.214 ± 0.11	-0.005 ± 0.027	0.036 ± 0.057	-0.001 ± 0.092	-0.014 ± 0.013	-0.114 ± 0.0092	-0.04 ± 0.024	-0.005	0.0325 ± 0.0021	0.0425 ± 0.021
HDF3CGF:Collagen I	0.004 ± 0.047	-0.0205 ± 0.063	0.015 ± 0.11	0.029 ± 0.0014	-0.01 ± 0.025	0.035	-0.0115 ± 0.016	-0.0075 ± 0.056	-0.0605 ± 0.11	0.025 ± 0.051	0.0485 ± 0.066	0.027 ± 0.052	-0.0265 ± 0.04	-0.185 ± 0.0071	-0.022 ± 0.0042	-0.016 ± 0.0042	-0.0365 ± 0.005	-0.0865 ± 0.09
HDF3CGF:Collagen III	-0.0145 ± 0.021	-0.0185 ± 0.052	-0.035 ± 0.047	-0.035 ± 0.0071	-0.094 ± 0.045	-0.438	-0.096 ± 0.03	-0.102 ± 0.022	-0.124 ± 0.016	-0.0605 ± 0.03	-0.0435 ± 0.011	-0.048 ± 0.073	0.0155 ± 0.013	-0.452 ± 0.0042	-0.0025 ± 0.032	0.0135 ± 0.0078	0.0075 ± 0.018	-0.0305 ± 0.012
HDF3CGF:EGFR	0.0025 ± 0.026	-0.006 ± 0.038	0.015 ± 0.047	-0.0015 ± 0.015	0.003 ± 0.023	-0.224	-0.019 ± 0.023	0.017 ± 0.0014	0.045 ± 0.013	-0.0165 ± 0.016	-0.056 ± 0.0057	-0.034 ± 0.0028	-0.101 ± 0.073	-0.0595 ± 0.018	0.037 ± 0.0085	-0.012 ± 0.034	-0.0255 ± 0.005	0.0195 ± 0.025
